The values that follow come from patent US20240083897A1, “GCN2 MODULATING COMPOUNDS AND USES THEREOF” (HiberCell, Inc., priority 2021, published 2024).

In this assay the target is GCN2 (Homo sapiens (Human), UniProt Q9P2K8). The assay can be described thus: TR-FRET biochemical assay for inhibition of GCN2. (Time-resolved FRET reads energy transfer from a long-lived donor to a nearby acceptor.)
Where [1] appears, read: GCN2 2 nM, 100 nM GFP-eIF2a, 150 μM ATP, TR-FRET.

Structures are written as SMILES. Like-named read-outs stand apart in the source and are kept apart here. Where only a bound is given, the exact number is not on record here.

Sequence of GCN2 (Q9P2K8 whole entry): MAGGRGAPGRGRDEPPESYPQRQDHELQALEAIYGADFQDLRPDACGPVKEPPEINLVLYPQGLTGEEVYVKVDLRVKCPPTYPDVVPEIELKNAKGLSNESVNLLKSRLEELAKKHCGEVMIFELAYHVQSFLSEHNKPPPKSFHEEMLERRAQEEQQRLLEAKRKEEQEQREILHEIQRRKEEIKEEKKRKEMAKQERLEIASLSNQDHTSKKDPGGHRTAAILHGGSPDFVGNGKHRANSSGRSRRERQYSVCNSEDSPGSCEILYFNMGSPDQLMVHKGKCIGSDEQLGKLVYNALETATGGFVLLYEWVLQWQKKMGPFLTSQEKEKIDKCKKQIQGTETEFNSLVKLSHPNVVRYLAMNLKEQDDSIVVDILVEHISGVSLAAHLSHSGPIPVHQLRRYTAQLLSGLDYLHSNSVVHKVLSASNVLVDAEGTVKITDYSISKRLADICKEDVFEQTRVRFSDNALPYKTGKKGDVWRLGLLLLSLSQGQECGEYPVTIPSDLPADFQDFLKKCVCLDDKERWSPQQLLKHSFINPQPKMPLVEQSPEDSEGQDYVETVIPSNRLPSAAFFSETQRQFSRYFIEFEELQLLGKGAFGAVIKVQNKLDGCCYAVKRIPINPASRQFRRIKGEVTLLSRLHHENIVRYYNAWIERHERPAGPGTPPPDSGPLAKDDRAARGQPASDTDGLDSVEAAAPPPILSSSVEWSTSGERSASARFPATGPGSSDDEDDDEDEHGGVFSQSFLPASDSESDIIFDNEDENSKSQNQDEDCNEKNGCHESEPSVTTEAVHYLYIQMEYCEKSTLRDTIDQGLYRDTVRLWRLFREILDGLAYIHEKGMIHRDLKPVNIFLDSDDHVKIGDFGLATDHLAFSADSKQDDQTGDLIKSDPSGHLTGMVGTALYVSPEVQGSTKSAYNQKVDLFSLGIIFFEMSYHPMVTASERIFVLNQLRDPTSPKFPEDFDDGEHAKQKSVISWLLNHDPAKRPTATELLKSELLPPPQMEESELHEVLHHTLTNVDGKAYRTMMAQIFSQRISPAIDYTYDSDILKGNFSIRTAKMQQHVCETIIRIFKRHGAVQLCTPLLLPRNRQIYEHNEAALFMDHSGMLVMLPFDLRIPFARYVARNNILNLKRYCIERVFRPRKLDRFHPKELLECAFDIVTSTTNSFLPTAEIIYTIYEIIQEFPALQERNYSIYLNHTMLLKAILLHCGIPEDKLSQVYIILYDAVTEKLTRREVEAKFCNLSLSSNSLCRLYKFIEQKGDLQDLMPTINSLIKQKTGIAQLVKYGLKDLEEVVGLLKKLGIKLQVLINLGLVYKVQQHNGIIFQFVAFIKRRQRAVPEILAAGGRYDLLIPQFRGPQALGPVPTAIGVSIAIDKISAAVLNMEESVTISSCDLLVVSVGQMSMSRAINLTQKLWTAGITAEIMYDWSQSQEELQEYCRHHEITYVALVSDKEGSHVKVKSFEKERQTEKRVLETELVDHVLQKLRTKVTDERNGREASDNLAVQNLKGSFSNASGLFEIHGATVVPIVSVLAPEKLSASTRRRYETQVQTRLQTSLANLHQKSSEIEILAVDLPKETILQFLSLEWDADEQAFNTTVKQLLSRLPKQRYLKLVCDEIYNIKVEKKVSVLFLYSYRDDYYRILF

Regarding `COc1ncc(F)cc1S(=O)(=O)Nc1ccc(F)c(-c2ccc3c(-c4ncc[nH]4)ncn3n2)c1F` [Compound 98, N-[2,4-difluoro-3-[5-(1H-imidazol-2-yl)imidazo[1,5-b]pyridazin-2-yl]phenyl]-5-fluoro-2-methoxypyridine-3-sulfonamide], the IC50 – broadly, the concentration needed to halve the response being measured – under setting [1] is under 0.05 µM.

Under setting [1], `COC(=O)c1ccc2nc(-c3ncn4cc(-c5c(F)ccc(NS(=O)(=O)c6cc(F)cnc6OC)c5F)ncc34)[nH]c2c1` [Compound 153, methyl 2-[6-[2,6-difluoro-3-(5-fluoro-2-methoxypyridine-3-sulfonamido)phenyl]imidazo[1,5-a]pyrazin-1-yl]-3H-1,3-benzodiazole-5-carboxylate] returned an IC50 of under 0.05 µM.

`N#Cc1cc2c(c(S(=O)(=O)Nc3ccc(F)c(-c4ccc5c(-c6ncc[nH]6)ncn5c4)c3F)c1)CCC2O` (centres unmarked) [Compound 39, 6-cyano-N-[2,4-difluoro-3-[1-(1H-imidazol-2-yl)imidazo[1,5-a]pyridin-6-yl]phenyl]-1-hydroxy-2,3-dihydro-1H-indene-4-sulfonamide]: the IC50 under setting [1] is under 0.05 µM.

Consider `COc1ncc(F)cc1S(=O)(=O)Nc1ccc(F)c(-c2ccc3c(-c4ccno4)ncn3c2)c1F` [Compound 118, N-[2,4-difluoro-3-[1-(1,2-oxazol-5-yl)imidazo[1,5-a]pyridin-6-yl]phenyl]-5-fluoro-2-methoxypyridine-3-sulfonamide], for which the IC50 under setting [1] was under 0.05 µM.

Under setting [1], `COc1ncc(Cl)cc1S(=O)(=O)Nc1ccc(F)c([C@H]2CCn3c(cnc3-c3ncc[nH]3)C2)c1F` [Compound 64-2, (S)—N-(3-(3-(1H-imidazol-2-yl)-5,6,7,8-tetrahydroimidazo[1,5-a]pyridin-7-yl)-2,4-difluorophenyl)-5-chloro-2-methoxypyridine-3-sulfonamide] showed an IC50 of under 0.05 µM.

The compound `COc1ncc(C#N)cc1S(=O)(=O)Nc1ccc(F)c(-c2cn3cnc(-c4nnc(C)[nH]4)c3cn2)c1F` [Compound 128, 5-cyano-N-[2,4-difluoro-3-[1-(5-methyl-4H-1,2,4-triazol-3-yl)imidazo[1,5-a]pyrazin-6-yl]phenyl]-2-methoxypyridine-3-sulfonamide] came in with an IC50 of 0.05 to 0.5 µM.

Take `CNC(=O)c1ncn2c1CC[C@H](c1c(F)ccc(NS(=O)(=O)c3cc(C#N)cnc3OC)c1F)C2` [Compound 68-1, (R)-6-(3-((5-cyano-2-methoxypyridine)-3-sulfonamido)-2,6-difluorophenyl)-N-methyl-5,6,7,8-tetrahydroimidazo[1,5-a]pyridine-1-carboxamide]: the IC50 was in the range of 0.05 to 0.5 µM.

`Cc1nnc(-c2ncn3cc(-c4c(F)ccc(NS(=O)(=O)c5cc(F)cnc5C)c4F)ncc23)[nH]1` [Compound 129, N-[2,4-difluoro-3-[1-(5-methyl-4H-1,2,4-triazol-3-yl)imidazo[1,5-a]pyrazin-6-yl]phenyl]-5-fluoro-2-methylpyridine-3-sulfonamide] came in with an IC50 under setting [1] of under 0.05 µM.

`COc1ncc(F)cc1S(=O)(=O)Nc1ccc(F)c(-c2ccc3c(-c4nc(Cl)c[nH]4)ncn3c2)c1F` [Compound 45, N-[3-[1-(4-chloro-1H-imidazol-2-yl)imidazo[1,5-a]pyridin-6-yl]-2,4-difluorophenyl]-5-fluoro-2-methoxypyridine-3-sulfonamide] showed an IC50 under setting [1] of under 0.05 µM.

The compound `COc1ncc(C#N)cc1S(=O)(=O)Nc1ccc(F)c(-c2ccc3c(-c4ncc[nH]4)ncn3n2)c1F` [Compound 97, 5-cyano-N-[2,4-difluoro-3-[5-(1H-imidazol-2-yl)imidazo[1,5-b]pyridazin-2-yl]phenyl]-2-methoxypyridine-3-sulfonamide] returned an IC50 under setting [1] of under 0.05 µM.

The compound `CNC(=O)c1ncn2c1CO[C@@H](c1c(F)ccc(NS(=O)(=O)c3cc(Cl)cnc3OC)c1F)C2` [Compound 154-1, (6S)-6-[3-(5-chloro-2-methoxypyridine-3-sulfonamido)-2,6-difluorophenyl]-N-methyl-5H,6H,8H-imidazo[4,3-c][1,4]oxazine-1-carboxamide] returned an IC50 of 0.05 to 0.5 µM.

The compound `COc1ncc(Cl)cc1S(=O)(=O)Nc1ccc(F)c(-c2ccc3c(-c4ccn[nH]4)ncn3c2)c1F` [Compound 32, 5-chloro-N-[2,4-difluoro-3-[1-(2H-pyrazol-3-yl)imidazo[1,5-a]pyridin-6-yl]phenyl]-2-methoxypyridine-3-sulfonamide] came in with an IC50 under setting [1] of under 0.05 µM.

For `CNC(=O)c1ncn2cc(-c3c(F)ccc(NS(=O)(=O)c4cc(Cl)cnc4OC)c3Cl)ncc12` [Compound 106, 6-[2-chloro-3-(5-chloro-2-methoxypyridine-3-sulfonamido)-6-fluorophenyl]-N-methylimidazo[1,5-a]pyrazine-1-carboxamide], the IC50 under setting [1] is under 0.05 µM.

With `Cc1ncc(F)cc1S(=O)(=O)Nc1ccc(F)c([C@H]2CCc3c(-c4ncc[nH]4)ncn3C2)c1F` [Compound 80-1, N-[2,4-difluoro-3-[(6R)-1-(1H-imidazol-2-yl)-5H,6H,7H,8H-imidazo[1,5-a]pyridin-6-yl]phenyl]-5-fluoro-2-methylpyridine-3-sulfonamide], under setting [1], the IC50 is under 0.05 µM.

Under setting [1], `COc1ncc(Cl)cc1S(=O)(=O)Nc1ccc(F)c(-c2cn3cnc(-c4nc5ccccc5[nH]4)c3cn2)c1F` [Compound 110, N-[3-[1-(1H-1,3-benzodiazol-2-yl)imidazo[1,5-a]pyrazin-6-yl]-2,4-difluorophenyl]-5-chloro-2-methoxypyridine-3-sulfonamide] returned an IC50 of under 0.05 µM.

As to `CCOc1ncc(Cl)cc1S(=O)(=O)Nc1ccc(F)c(-c2cn3cnc(C(=O)NC)c3cn2)c1F` [Compound 167, 6-[3-(5-chloro-2-ethoxypyridine-3-sulfonamido)-2,6-difluorophenyl]-N-methylimidazo[1,5-a]pyrazine-1-carboxamide], the IC50 is 0.05 to 0.5 µM.

Consider `Cc1ncc(F)cc1S(=O)(=O)Nc1ccc(F)c(-c2ccc3c(-c4ncc[nH]4)ncn3c2F)c1F` [Compound 108, N-[2,4-difluoro-3-[5-fluoro-1-(1H-imidazol-2-yl)imidazo[1,5-a]pyridin-6-yl]phenyl]-5-fluoro-2-methylpyridine-3-sulfonamide], for which the IC50 under setting [1] is under 0.05 µM.

On to `COc1ncc(F)cc1S(=O)(=O)Nc1ccc(F)c(-c2ccc3c(-c4ncc[nH]4)ncn3c2F)c1F` [Compound 107, N-[2,4-difluoro-3-[5-fluoro-1-(1H-imidazol-2-yl)imidazo[1,5-a]pyridin-6-yl]phenyl]-5-fluoro-2-methoxypyridine-3-sulfonamide], for which the IC50 under setting [1] was under 0.05 µM.

Turning to `Cc1nnc(-c2ncn3c2CC[C@H](c2c(F)ccc(NS(=O)(=O)c4cc(Cl)cnc4C)c2F)C3)[nH]1` [Compound 136-2, 5-chloro-N-[2,4-difluoro-3-[(6R)-1-(5-methyl-4H-1,2,4-triazol-3-yl)-5H,6H,7H,8H-imidazo[1,5-a]pyridin-6-yl]phenyl]-2-methylpyridine-3-sulfonamide], under setting [1], the IC50 was under 0.05 µM.

For the compound `CNC(=O)c1ncn2c1CC[C@@H](c1c(F)ccc(NS(=O)(=O)c3cc(Cl)cnc3OC)c1F)C2` [Compound 27-2, (6S)-6-[3-(5-chloro-2-methoxypyridine-3-sulfonamido)-2,6-difluorophenyl]-N-methyl-5H,6H,7H,8H-imidazo[1,5-a]pyridine-1-carboxamide], the IC50 is 0.05 to 0.5 µM.

Regarding `Cc1ncc(F)cc1S(=O)(=O)Nc1ccc(F)c(-c2ccc3c(-c4nc(C)c(C)[nH]4)ncn3c2)c1F` [Compound 145, N-(3-(1-(4,5-dimethyl-1H-imidazol-2-yl)imidazo[1,5-a]pyridin-6-yl)-2,4-difluorophenyl)-5-fluoro-2-methylpyridine-3-sulfonamide], under setting [1], the IC50 is under 0.05 µM.

`COc1ncc(C#N)cc1S(=O)(=O)Nc1ccc(F)c(-c2cn3cnc(-c4ncc[nH]4)c3cn2)c1F` [Compound 69, 5-cyano-N-[2,4-difluoro-3-[1-(1H-imidazol-2-yl)imidazo[1,5-a]pyrazin-6-yl]phenyl]-2-methoxypyridine-3-sulfonamide] gave an IC50 under setting [1] of under 0.05 µM.

Compound `COc1ncc(Cl)cc1S(=O)(=O)Nc1ccc(F)c(-c2ccc3c(-c4nnc(C(C)C)[nH]4)ncn3c2)c1F` [Compound 88, 5-chloro-N-[2,4-difluoro-3-[1-(5-isopropyl-4H-1,2,4-triazol-3-yl)imidazo[1,5-a]pyridin-6-yl]phenyl]-2-methoxypyridine-3-sulfonamide] registered an IC50 under setting [1] of under 0.05 µM.

Consider `CNC(=O)c1ncn2cc(-c3c(F)ccc(NS(=O)(=O)c4cc(Cl)c[nH]c4=O)c3F)ncc12` [Compound 132, 6-(3-((5-chloro-2-oxo-1,2-dihydropyridine)-3-sulfonamido)-2,6-difluorophenyl)-N-methylimidazo[1,5-a]pyrazine-1-carboxamide], for which, under setting [1], the IC50 was over 1 µM.

Under setting [1], `COc1ncc(Cl)cc1S(=O)(=O)Nc1ccc(F)c(-c2ccc3c(-c4nc(C#N)c[nH]4)ncn3c2)c1F` [Compound 43, N-[3-[1-(4-cyano-1H-imidazol-2-yl)imidazo[1,5-a]pyridin-6-yl]-2,4-difluorophenyl]-5-chloro-2-methoxypyridine-3-sulfonamide] returned a 50% inhibitory concentration (IC50) of under 0.05 µM.

Under setting [1], `COc1ncc(C#N)cc1S(=O)(=O)Nc1ccc(F)c(-c2ccc3c(-c4ncc[nH]4)ncn3c2)c1F` [Compound 20, 5-cyano-N-[2,4-difluoro-3-[1-(1H-imidazol-2-yl)imidazo[1,5-a]pyridin-6-yl]phenyl]-2-methoxypyridine-3-sulfonamide] had an IC50 of under 0.05 µM.

In the case of `Cc1nnc(-c2ncn3cc(-c4c(F)ccc(NS(=O)(=O)c5cc(Cl)cnc5C)c4F)ccc23)[nH]1` [Compound 61, 5-chloro-N-[2,4-difluoro-3-[1-(5-methyl-4H-1,2,4-triazol-3-yl)imidazo[1,5-a]pyridin-6-yl]phenyl]-2-methylpyridine-3-sulfonamide], under setting [1], the IC50 was under 0.05 µM.

Turning to `COc1ncc(Cl)cc1S(=O)(=O)Nc1ccc(F)c(-c2ccc3c(-n4cnnn4)ncn3c2)c1F` [Compound 63, 5-chloro-N-[2,4-difluoro-3-[1-(1,2,3,4-tetrazol-1-yl)imidazo[1,5-a]pyridin-6-yl]phenyl]-2-methoxypyridine-3-sulfonamide], the IC50 under setting [1] is under 0.05 µM.

On to `CNC(=O)c1ncn2c1CCC(c1c(Cl)ccc(NS(=O)(=O)c3cc(F)cnc3OC)c1F)C2` (stereo in doubt) [Compound 155-2, (6S)-6-[6-chloro-2-fluoro-3-(5-fluoro-2-methoxypyridine-3-sulfonamido)phenyl]-N-methyl-5H,6H,7H,8H-imidazo[1,5-a]pyridine-1-carboxamide], for which the concentration for half-maximal inhibition (IC50) was in the range of 0.05 to 0.5 µM.
